# Laboratory results: patent publication US20250186408A1, “TREATMENT OF PHARMACORESISTANT EPILEPSY” (Katholieke Universiteit Leuven, priority 2021, published 2025)
# Read-outs that look alike come from different tables or passages of the source.
# Columns and labels:
# CHRM2 = biological target: T1, CHRM2 (Homo sapiens, UniProt P08172); assay: cAMP CHRM2 Antagonist; conditions: for Emax: read-out: Max response
# T1 sequence (P08172 1-466): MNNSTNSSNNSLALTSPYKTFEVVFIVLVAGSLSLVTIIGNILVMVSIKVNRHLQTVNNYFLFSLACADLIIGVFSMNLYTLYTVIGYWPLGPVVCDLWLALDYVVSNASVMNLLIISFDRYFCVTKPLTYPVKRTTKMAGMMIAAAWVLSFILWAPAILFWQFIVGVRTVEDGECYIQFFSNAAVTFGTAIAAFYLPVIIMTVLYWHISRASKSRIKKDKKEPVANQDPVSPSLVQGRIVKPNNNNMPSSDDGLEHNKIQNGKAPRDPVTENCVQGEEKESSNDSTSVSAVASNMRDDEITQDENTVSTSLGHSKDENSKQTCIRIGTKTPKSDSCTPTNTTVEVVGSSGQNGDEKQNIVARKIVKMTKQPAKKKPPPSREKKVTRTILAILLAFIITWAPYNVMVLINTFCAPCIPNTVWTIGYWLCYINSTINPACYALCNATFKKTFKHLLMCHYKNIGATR
# Experimental: (§1) In vitro pharmacological profiling of compounds was done against 78 functional assays for 47 common off-targets (30) by Eurofins DiscoverX Corporation (Fremont, CA, USA) using their SAFETYscan E/IC50 ELECT service (Cat Ref 87-1003DR, Safety47 Panel Dose Response). […] Compounds were tested in a range of 10 concentrations, following a 3-fold serial dilution, starting from 10 μM.
# (§2) cAMP Hunter cell lines were expanded from freezer stocks. Prior to testing, cells were seeded in a total volume of 20 μL into white walled 384-well microplates and incubated at 37° C. cAMP modulation was determined using the DiscoverX HitHunter cAMP XS+ assay. For Gs agonist determination, cells were incubated with sample to induce response. For Gi agonist determination, cells were incubated with sample in the presence of EC80 forskolin to induce response. For both conditions, media was aspirated from cells and replaced with 15 μL 2:1 HBSS/10 mM HEPES:cAMP XS+ Ab reagent. Intermediate dilution of sample stocks was performed to generate 4× sample in assay buffer (containing 4×EC80 forskolin in the case of antagonist determination). 5 μL of 4× sample was added to cells and incubated at 37° C. or room temperature (RT) for 30 or 60 min. Final assay vehicle concentration was 1%. For antagonist determination, cells were pre-incubated with sample followed by agonist challenge at the EC80 concentration. Media was aspirated from cells and replaced with 10 μL 1:1 HBSS/HEPES:cAMP XS+ Ab reagent. 5 μL of 4× compound was added to the cells and incubated at 37° C. or RT for 30 min. 5 μL of 4×EC80 agonist was added to the cells and incubated at 37° C. or RT for 30 or 60 min. For Gi coupled GPCRs, EC80 forskolin was included. […] Microplates were read following signal generation with a PerkinElmer Envision™ instrument for chemiluminescent signal detection. Compound activity was analyzed using CBIS data analysis suite (ChemInnovation, CA). For Gs agonist mode assays, percentage activity was calculated using the following equation:
# LCK = biological target: T2, LCK (Homo sapiens, UniProt P06239); assay: Binding (KINOMEscan) LCK Inhibitor; conditions: for Emax: read-out: Max response; for IC50: read-out: RC50, result type IC50
# T2 construct: purchased Eurofins DiscoverX Corporation 87-1003DR; host or cells: E. coli BL21-derived host (T7 phage) or HEK-293
# Experimental: For most assays, kinase-tagged T7 phage strains were grown in parallel in 24-well blocks in an E. coli host derived from the BL21 strain. E. coli were grown to log-phase and infected with T7 phage from a frozen stock (multiplicity of infection=0.4) and incubated with shaking at 32° C. until lysis (90-150 min). The lysates were centrifuged (6,000×g) and filtered (0.2 μm) to remove cell debris. The remaining kinases were produced in HEK-293 cells and subsequently tagged with DNA for qPCR detection. Streptavidin-coated magnetic beads were treated with biotinylated small molecule ligands for 30 min at RT to generate affinity resins for kinase assays. The liganded beads were blocked with excess biotin and washed with blocking buffer (SeaBlock (Pierce), 1% BSA, 0.05% Tween 20, 1 mM DTT) to remove unbound ligand and to reduce non-specific phage binding. […] All reactions were performed in polypropylene 384-well plates in a final volume of 0.02 mL. […] The beads were then re-suspended in elution buffer (1×PBS, 0.05% Tween 20, 0.5 μM non-biotinylated affinity ligand) and incubated at RT with shaking for 30 min. The kinase concentration in the eluates was measured by qPCR.
# The kinase concentration in the eluates was measured by qPCR. qPCR reactions were assembled by adding 2.5 μL of kinase eluate to 7.5 μL of qPCR master mix containing 0.15 μM amplicon primers and 0.15 μM amplicon probe. The qPCR protocol consisted of a 10 min hot start at 95° C., followed by 35 cycles of 95° C. for 15 sec, 60° C. for 1 min.
# Binding constants (Kds) were calculated with a standard dose-response curve using the Hill equation: […]
# PDE3A = biological target: T3, PDE3A (Homo sapiens, UniProt Q14432); assay: Enzymatic PDE3A Inhibitor; type: biochemical; conditions: for Emax: read-out: Max response; for IC50: read-out: RC50, result type IC50
# T3 construct: purchased Signal Chem
# Experimental: Enzyme preparations were sourced from various vendors-AChE (R&D Systems), COX1 and COX2 (BPS Bioscience), MAOA (Sigma), PDE3A and PDE4D2 (Signal Chem). AChE: enzyme and test compound were pre-incubated for 15 min at RT before substrate addition. Acetylthiocholine and DTNB were added and incubated at RT for 30 min. Signal was detected by measuring absorbance at 405 nm. COX1 and COX2: enzyme stocks were diluted in assay buffer (40 mM Tris-HCl, 1×PBS, 0.5 mM Phenol, 0.01% Tween 20 and 10 nM Hematin) and allowed to equilibrate with compounds at RT for 30 min (binding incubation). Arachidonic acid (1.7 μM) and Ampliflu Red (2.5 μM) were prepared and dispended into a reaction plate. Plates were read immediately on a fluorimeter with the emission detection at 590 nm and excitation wavelength 544 nm. MAOA: enzyme and test compound were pre-incubated for 15 min at 37° C. before substrate addition. The reaction was initiated by addition of kynuramine and incubated at 37° C. for 30 min. The reaction was terminated by addition of NaOH. The amount of 4-hydroquinoline formed was determined through spectrofluorometric readout with the emission detection at 380 nm and excitation wavelength 310 nm. PDE3A and PDE4D2: enzyme and test compound were pre-incubated for 15 min at RT before substrate addition. cAMP substrate (at a concentration equal to EC80) was added and incubated at RT for 30 min. Enzyme reaction was terminated by addition of 9 mM IBMX. Signal was detected using the HitHunter® cAMP detection kit. Microplates were transferred to a PerkinElmer Envision™ instrument and read out as described for each assay. […] For enzyme activity assays, percentage inhibition was calculated using the following equation: […]
# nAChR (a4/b2) = nAChR (a4/b2) (Homo sapiens, UniProt P17787+P43681); assay: Ion Channel nAChR (a4/b2) Opener; type: cell-based; conditions: for Emax: Ion Channel nAChR (a4/b2) Opener, read-out: Max response
# HTR1B = HTR1B (Homo sapiens, UniProt P28222); assay: cAMP HTR1B Agonist; conditions: for Emax: read-out: Max response
# Experimental: as §1
# (§3) cAMP Hunter cell lines were expanded from freezer stocks. Prior to testing, cells were seeded in a total volume of 20 μL into white walled 384-well microplates and incubated at 37° C. cAMP modulation was determined using the DiscoverX HitHunter cAMP XS+ assay. For Gs agonist determination, cells were incubated with sample to induce response. For Gi agonist determination, cells were incubated with sample in the presence of EC80 forskolin to induce response. For both conditions, media was aspirated from cells and replaced with 15 μL 2:1 HBSS/10 mM HEPES:cAMP XS+ Ab reagent. Intermediate dilution of sample stocks was performed to generate 4× sample in assay buffer (containing 4×EC80 forskolin in the case of antagonist determination). 5 μL of 4× sample was added to cells and incubated at 37° C. or room temperature (RT) for 30 or 60 min. Final assay vehicle concentration was 1%. For antagonist determination, cells were pre-incubated with sample followed by agonist challenge at the EC80 concentration. Media was aspirated from cells and replaced with 10 μL 1:1 HBSS/HEPES:cAMP XS+ Ab reagent. 5 μL of 4× compound was added to the cells and incubated at 37° C. or RT for 30 min. 5 μL of 4×EC80 agonist was added to the cells and incubated at 37° C. or RT for 30 or 60 min. For Gi coupled GPCRs, EC80 forskolin was included. […] Microplates were read following signal generation with a PerkinElmer Envision™ instrument for chemiluminescent signal detection. Compound activity was analyzed using CBIS data analysis suite (ChemInnovation, CA).
# NET = biological target: T4, NET (Homo sapiens, UniProt P23975); assay: Transporter NET Blocker; type: cell-based; conditions: for Emax: Transporter NET Blocker, read-out: Max response
# T4 construct: Eurofins DiscoverX Corporation 87-1003DR; host or cells: unnamed cell lines
# Experimental: After cell plating and incubation, media was removed an 25 μL of 1× compound in 1×HBSS/0.1% BSA was added. Compounds were incubated with cells for 30 min at 37° C. After compound incubation, 25 μL of 1× dye loading buffer (1× dye, 1×HBSS/20 mM HEPES) was added to the wells. Cells were incubated for 30-60 min at 37° C. After incubation, microplates were transferred to a PerkinElmer Envision™ instrument for fluorescent signal detection. […] For blocker mode assays, percentage of inhibition was calculated using the following formula: […]
# OPRM1 = OPRM1 (Homo sapiens, UniProt P35372); assay: cAMP OPRM1 Antagonist; conditions: for Emax: OPRM1, read-out: Max response
# Experimental: In vitro pharmacological profiling of compounds was done against 78 functional assays for 47 common off-targets (30) by Eurofins DiscoverX Corporation (Fremont, CA, USA) using their SAFETYscan E/IC50 ELECT service (Cat Ref 87-1003DR, Safety47 Panel Dose Response). […] Compounds were tested in a range of 10 concentrations, following a 3-fold serial dilution, starting from 10 μM. The assays were performed utilizing the PathHunter enzyme fragment complementation (EFC) technology, FLIPR®-based cellular screening assays, and KINOMEscan kinase binding assays.
# as §2
# OPRD1 = OPRD1 (Homo sapiens, UniProt P41143); assay: cAMP OPRD1 Antagonist; conditions: for Emax: read-out: Max response
# Sequence of OPRD1 (P41143 whole entry): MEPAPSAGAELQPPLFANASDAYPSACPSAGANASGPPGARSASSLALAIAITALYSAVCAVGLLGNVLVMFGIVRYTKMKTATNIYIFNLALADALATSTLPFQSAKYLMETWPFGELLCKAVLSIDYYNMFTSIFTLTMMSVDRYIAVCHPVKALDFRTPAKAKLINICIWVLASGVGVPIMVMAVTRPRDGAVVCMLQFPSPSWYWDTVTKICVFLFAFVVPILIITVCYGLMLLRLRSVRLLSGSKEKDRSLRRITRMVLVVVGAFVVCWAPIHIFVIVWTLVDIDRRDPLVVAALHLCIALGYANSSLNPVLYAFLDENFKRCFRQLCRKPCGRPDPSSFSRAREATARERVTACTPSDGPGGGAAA
# Experimental: as §1, §3
# Sequence of OPRM1 (P35372 whole entry): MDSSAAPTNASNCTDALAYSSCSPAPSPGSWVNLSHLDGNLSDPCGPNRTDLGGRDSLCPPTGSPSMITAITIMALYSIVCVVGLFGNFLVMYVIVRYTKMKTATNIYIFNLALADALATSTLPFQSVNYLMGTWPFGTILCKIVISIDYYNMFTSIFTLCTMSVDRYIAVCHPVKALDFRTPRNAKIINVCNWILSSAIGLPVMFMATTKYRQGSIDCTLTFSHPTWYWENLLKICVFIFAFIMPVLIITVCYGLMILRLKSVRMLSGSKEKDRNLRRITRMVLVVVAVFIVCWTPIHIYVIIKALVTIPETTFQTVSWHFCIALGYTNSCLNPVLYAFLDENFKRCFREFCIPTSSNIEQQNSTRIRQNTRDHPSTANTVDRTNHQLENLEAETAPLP
# T4 sequence (P23975 whole entry): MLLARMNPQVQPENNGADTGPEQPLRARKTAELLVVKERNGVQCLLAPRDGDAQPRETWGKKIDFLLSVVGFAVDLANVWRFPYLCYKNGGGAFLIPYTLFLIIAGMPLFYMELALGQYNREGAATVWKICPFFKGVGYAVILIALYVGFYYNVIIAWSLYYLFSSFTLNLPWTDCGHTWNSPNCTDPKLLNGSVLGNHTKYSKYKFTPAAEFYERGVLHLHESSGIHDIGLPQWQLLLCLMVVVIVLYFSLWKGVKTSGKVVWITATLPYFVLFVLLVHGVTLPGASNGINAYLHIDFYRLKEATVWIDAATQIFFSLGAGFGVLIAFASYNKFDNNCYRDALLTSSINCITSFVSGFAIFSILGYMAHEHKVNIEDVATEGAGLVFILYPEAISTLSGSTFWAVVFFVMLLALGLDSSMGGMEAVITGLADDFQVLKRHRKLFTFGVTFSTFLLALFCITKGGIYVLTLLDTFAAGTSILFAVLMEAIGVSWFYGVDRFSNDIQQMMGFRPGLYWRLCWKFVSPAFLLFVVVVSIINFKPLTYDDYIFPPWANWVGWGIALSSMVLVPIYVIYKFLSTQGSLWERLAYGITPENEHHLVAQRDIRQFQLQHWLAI
# Sequence of HTR1B (P28222 whole entry): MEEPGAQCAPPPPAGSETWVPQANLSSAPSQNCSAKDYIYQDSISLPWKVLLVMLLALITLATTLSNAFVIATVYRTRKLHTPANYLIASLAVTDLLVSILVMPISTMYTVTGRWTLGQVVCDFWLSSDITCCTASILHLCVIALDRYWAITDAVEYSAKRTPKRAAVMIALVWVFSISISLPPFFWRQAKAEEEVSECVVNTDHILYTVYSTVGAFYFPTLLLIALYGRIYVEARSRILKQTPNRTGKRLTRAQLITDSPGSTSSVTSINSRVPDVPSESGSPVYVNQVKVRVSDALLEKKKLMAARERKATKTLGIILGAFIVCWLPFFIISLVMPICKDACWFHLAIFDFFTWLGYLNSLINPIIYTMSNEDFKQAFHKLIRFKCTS
# T3 sequence (Q14432 whole entry): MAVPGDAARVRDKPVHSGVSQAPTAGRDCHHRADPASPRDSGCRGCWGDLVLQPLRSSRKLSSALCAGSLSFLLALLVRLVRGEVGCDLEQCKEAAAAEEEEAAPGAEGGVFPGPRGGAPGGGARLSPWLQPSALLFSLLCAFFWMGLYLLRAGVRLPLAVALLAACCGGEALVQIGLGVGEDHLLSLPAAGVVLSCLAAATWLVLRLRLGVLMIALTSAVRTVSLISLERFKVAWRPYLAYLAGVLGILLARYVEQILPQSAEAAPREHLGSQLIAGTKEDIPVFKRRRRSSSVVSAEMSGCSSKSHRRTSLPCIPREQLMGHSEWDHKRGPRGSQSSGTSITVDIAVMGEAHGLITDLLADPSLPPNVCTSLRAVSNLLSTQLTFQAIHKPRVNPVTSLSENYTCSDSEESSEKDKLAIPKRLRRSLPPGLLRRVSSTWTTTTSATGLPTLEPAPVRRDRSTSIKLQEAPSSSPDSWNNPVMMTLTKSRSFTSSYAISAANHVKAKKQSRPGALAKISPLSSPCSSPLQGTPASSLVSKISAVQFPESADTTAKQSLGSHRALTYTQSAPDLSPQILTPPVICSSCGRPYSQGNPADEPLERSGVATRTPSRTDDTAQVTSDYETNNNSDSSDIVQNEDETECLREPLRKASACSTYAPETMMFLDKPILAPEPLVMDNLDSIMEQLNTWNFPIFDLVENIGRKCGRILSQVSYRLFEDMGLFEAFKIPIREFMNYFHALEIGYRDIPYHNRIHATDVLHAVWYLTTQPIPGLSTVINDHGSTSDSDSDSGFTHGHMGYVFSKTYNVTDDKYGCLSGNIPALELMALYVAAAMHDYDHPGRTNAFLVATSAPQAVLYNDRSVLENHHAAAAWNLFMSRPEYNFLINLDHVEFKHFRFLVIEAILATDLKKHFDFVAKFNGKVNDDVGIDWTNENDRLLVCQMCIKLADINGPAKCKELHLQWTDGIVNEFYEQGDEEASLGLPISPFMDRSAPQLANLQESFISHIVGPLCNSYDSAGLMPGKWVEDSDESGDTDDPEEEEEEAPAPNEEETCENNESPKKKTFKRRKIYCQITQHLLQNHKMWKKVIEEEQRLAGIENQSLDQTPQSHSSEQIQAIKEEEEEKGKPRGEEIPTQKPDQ
# Sequence of nAChR (a4/b2) (P43681 29-627 limits assumed): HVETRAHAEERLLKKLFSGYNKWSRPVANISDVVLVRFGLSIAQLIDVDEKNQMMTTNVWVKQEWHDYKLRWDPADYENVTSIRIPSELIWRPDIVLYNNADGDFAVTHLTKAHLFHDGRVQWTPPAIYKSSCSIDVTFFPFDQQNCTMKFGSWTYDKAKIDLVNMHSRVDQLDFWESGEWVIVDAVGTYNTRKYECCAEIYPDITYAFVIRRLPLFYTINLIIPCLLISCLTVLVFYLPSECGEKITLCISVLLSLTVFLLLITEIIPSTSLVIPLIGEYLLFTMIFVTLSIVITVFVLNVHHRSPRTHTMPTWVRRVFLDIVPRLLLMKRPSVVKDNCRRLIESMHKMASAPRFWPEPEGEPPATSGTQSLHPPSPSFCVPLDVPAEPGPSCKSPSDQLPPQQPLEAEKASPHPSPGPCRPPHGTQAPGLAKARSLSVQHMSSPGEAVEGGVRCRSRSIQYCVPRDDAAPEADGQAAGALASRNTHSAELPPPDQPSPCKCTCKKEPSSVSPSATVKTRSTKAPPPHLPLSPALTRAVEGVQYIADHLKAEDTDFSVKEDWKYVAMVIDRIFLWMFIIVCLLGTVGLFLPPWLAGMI
# Sequence of nAChR (a4/b2) (P17787 26-502): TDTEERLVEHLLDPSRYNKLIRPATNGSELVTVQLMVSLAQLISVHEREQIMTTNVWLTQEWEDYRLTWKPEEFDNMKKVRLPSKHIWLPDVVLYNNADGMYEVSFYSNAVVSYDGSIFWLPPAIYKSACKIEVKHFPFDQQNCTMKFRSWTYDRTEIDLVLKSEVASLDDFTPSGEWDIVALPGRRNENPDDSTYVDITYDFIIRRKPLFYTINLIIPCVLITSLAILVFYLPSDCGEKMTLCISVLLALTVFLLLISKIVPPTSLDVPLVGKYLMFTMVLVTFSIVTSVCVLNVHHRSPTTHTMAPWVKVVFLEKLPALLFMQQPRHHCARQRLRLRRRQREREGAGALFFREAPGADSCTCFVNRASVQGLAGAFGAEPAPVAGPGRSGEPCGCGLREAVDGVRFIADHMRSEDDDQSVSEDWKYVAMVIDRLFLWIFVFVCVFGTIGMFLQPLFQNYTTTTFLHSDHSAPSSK
# T2 sequence (P06239 whole entry): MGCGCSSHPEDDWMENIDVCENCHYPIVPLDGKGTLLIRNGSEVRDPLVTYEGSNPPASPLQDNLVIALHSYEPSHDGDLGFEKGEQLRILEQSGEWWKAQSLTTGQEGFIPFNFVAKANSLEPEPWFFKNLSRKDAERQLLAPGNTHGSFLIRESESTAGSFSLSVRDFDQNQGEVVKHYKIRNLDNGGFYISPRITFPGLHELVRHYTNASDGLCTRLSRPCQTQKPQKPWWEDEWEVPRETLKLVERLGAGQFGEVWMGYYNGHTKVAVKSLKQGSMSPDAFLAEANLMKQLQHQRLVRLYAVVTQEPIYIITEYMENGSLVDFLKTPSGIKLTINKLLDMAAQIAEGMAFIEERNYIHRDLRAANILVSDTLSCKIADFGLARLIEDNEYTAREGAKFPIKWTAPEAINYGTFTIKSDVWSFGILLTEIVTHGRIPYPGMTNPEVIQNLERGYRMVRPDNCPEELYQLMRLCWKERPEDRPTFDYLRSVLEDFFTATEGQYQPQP
Compound,IC50 (CHRM2) [µM],Emax (CHRM2) [%],Emax (LCK; Binding LCK Inhibitor) [%],IC50 (LCK; Binding LCK Inhibitor) [µM],Emax (PDE3A; Enzymatic PDE3A Inhibitor) [%],IC50 (PDE3A; Enzymatic PDE3A Inhibitor) [µM],EC50 (nAChR (a4/b2)) [µM],Emax (nAChR (a4/b2)) [%],EC50 (HTR1B) [µM],Emax (HTR1B) [%],IC50 (NET) [µM],Emax (NET) [%],IC50 (OPRM1) [µM],Emax (OPRM1) [%],IC50 (OPRD1) [µM],Emax (OPRD1) [%],Emax (LCK) [%],Emax (PDE3A) [%]
"Clc1cccc(C#Cc2n[nH]c3ncccc23)c1 [Compound 10.1, 3-((3-chlorophenyl)ethynyl)-1H-pyrazolo[3,4-b]pyridine]",> 10,0,0,> 10,0.1,> 10,> 10,0,> 10,9.3,> 10,13.6,> 10,0,> 10,0,–,–
"CC(C)(C)c1ccc(C#CC(O)c2ccccc2)cc1 (racemic) [Compound 3.3, rac-3-(4-(tert-butyl)phenyl)-1-phenylprop-2-yn-1-ol]",4.3,90.1,–,> 10,–,> 10,> 10,0,> 10,5.2,> 10,0,> 10,0.8,> 10,5.9,0,0.6
